Laboratory results published in US11420969B2 (Exonate Limited, priority 2017, dated 2022).
pIC50: −log10 of the molar value.

Legend:
SRPK1 = SRPK1 (Homo sapiens, UniProt Q96SB4); assay: In vitro SRPK1 assay (Kinase-Glo); format: biochemical
CYP1A2 = molecular target: T1, CYP1A2 (Homo sapiens, UniProt P05177); assay: CYP inhibition assay, human liver microsomes, substrate tacrine; format: in vitro ADME; conditions: human liver microsomes, 10 min incubation, LC-MS/MS; read-out: CYP Inhibition Activity (IC50/nM) CYP1A2
T1 construct: from tissue; host or cells: human liver microsomes
T1 sequence (P05177 1-516): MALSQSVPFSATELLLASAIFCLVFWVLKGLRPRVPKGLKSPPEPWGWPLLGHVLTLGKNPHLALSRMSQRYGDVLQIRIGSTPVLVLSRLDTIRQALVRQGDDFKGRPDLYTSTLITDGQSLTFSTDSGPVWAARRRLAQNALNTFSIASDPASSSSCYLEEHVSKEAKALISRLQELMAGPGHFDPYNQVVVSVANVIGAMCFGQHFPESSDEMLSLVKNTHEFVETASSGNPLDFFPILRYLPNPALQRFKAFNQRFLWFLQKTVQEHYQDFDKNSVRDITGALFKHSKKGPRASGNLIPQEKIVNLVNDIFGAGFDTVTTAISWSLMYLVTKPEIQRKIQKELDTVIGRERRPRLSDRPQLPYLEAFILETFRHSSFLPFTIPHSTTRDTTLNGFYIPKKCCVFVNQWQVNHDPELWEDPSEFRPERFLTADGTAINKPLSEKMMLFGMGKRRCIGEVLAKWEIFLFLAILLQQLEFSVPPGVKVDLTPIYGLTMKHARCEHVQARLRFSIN
Experimental: (§1) 2 μL of test compound/Positive Inhibitor working solutions is then added to the reaction plate (2 μL/well). For control, 2 μL of Acetonitrile (ACN) containing DMSO (without inhibitor) is added to the reaction plate. 20 μL of substrate pool is added to all the wells of the reaction plate. The samples are mixed in a vortexer and pre-incubated at 37° C. for 20 min. The NADPH solution is pre-warmed at 37° C. for 5 min. 20 μL of pre-warmed NADPH solution is added to the reaction plate and then incubated at 37° C. for 10 min. The reaction is terminated by adding cold ACN (200 μL/well) to the reaction mixture and centrifuging at 4,000 rpm for 20 minutes. After centrifugation, supernatant is separated and analyzed by LC-MS/MS.
(§2) % inhibition and IC50 are calculated using Graphpad Prism software.

CYP2C9 = molecular target: T2, CYP2C9 (Homo sapiens, UniProt P11712); assay: CYP inhibition assay, human liver microsomes, substrate diclofenac; format: in vitro ADME; conditions: human liver microsomes, 10 min incubation, LC-MS/MS; read-out: CYP Inhibition Activity (IC50/nM) CYP2C9
T2 construct: from tissue; host or cells: human liver microsomes
Experimental: as §1, §2

CYP2C19 = molecular target: T3, CYP2C19 (Homo sapiens, UniProt P33261); assay: CYP inhibition assay, human liver microsomes, substrate S-mephenytoin; format: in vitro ADME; conditions: human liver microsomes, 10 min incubation, LC-MS/MS; read-out: CYP Inhibition Activity (IC50/nM) CYP2C19
T3 construct: from tissue; host or cells: human liver microsomes
Experimental: as §1, §2

CYP2D6 = molecular target: T4, CYP2D6 (Homo sapiens, UniProt P10635); assay: biochemical; format: in vitro ADME
T4 construct: from tissue; host or cells: human liver microsomes
Experimental: 158 μL of Human Liver Microsomes working stock solution is added to a reaction plate (0.253 mg/mL, 158 μL/well). 2 μL of test compound/Positive Inhibitor working solutions is then added to the reaction plate (2 μL/well). For control, 2 μL of Acetonitrile (ACN) containing DMSO (without inhibitor) is added to the reaction plate. 20 μL of substrate pool is added to all the wells of the reaction plate. The samples are mixed in a vortexer and pre-incubated at 37° C. for 20 min. The NADPH solution is pre-warmed at 37° C. for 5 min. 20 μL of pre-warmed NADPH solution is added to the reaction plate and then incubated at 37° C. for 10 min. The reaction is terminated by adding cold ACN (200 μL/well) to the reaction mixture and centrifuging at 4,000 rpm for 20 minutes. After centrifugation, supernatant is separated and analyzed by LC-MS/MS.
as §2

CYP3A4 = molecular target: T5, CYP3A4 (Homo sapiens, UniProt P08684); assay: CYP inhibition assay, human liver microsomes, substrate midazolam; format: in vitro ADME; conditions: human liver microsomes, 10 min incubation, LC-MS/MS; read-out: CYP Inhibition Activity (IC50/nM) CYP3A4
T5 construct: from tissue; host or cells: human liver microsomes
Experimental: as §1, §2

Sequence of SRPK1 (Q96SB4 whole entry, species assumed): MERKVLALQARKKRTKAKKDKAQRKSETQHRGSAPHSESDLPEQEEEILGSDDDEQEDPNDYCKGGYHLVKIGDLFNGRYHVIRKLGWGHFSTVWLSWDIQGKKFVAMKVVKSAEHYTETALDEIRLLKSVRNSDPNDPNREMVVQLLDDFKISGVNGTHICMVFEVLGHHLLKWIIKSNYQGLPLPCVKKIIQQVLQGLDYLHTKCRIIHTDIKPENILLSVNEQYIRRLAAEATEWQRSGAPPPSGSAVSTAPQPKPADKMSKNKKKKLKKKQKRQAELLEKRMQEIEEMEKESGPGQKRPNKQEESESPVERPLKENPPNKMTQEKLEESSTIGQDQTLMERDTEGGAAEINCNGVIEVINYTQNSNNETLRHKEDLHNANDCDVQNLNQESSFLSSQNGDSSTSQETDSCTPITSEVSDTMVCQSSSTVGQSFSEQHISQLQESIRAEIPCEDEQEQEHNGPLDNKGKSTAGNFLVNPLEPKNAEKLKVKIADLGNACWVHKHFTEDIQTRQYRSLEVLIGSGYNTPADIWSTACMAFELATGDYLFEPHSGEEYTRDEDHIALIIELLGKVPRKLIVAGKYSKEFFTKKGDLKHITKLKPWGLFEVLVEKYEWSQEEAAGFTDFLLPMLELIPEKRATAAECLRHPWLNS
T3 sequence (P33261 whole entry): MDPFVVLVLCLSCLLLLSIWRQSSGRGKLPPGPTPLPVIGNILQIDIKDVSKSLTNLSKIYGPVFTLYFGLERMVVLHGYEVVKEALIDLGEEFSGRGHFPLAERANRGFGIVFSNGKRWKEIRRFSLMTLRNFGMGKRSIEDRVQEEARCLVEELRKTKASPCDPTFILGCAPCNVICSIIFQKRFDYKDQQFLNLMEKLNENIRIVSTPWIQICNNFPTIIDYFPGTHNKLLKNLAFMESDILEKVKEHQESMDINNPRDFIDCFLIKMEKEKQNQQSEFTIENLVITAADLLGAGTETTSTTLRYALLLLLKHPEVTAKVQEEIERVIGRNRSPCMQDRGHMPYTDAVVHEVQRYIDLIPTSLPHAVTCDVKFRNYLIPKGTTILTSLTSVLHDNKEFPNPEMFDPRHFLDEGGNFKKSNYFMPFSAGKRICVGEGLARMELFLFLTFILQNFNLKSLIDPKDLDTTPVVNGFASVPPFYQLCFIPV
T2 sequence (P11712 whole entry): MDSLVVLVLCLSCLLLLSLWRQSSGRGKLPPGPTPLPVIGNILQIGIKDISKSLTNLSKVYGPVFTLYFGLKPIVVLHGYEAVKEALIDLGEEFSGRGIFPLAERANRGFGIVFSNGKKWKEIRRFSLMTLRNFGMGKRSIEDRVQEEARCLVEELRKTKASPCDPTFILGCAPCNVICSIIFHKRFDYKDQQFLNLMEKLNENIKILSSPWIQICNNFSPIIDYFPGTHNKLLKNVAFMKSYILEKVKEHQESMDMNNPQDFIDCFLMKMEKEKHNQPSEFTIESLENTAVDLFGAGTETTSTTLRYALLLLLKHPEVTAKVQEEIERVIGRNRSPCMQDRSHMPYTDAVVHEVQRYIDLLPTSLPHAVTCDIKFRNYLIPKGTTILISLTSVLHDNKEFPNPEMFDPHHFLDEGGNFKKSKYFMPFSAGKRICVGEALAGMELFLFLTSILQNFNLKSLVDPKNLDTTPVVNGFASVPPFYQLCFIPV
T4 sequence (P10635 whole entry): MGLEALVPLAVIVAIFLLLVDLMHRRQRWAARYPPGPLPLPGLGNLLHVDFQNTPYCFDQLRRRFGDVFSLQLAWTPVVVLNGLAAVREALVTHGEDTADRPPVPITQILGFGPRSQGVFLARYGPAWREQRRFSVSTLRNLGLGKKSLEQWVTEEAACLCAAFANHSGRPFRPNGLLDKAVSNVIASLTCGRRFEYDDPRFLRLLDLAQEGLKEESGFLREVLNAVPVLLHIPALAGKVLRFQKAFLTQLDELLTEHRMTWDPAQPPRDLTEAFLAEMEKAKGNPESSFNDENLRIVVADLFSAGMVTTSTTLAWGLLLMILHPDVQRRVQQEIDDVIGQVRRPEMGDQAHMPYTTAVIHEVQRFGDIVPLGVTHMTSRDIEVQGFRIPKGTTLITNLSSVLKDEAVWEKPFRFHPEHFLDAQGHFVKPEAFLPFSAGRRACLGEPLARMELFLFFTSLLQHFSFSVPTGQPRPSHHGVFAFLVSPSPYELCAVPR
T5 sequence (P08684 whole entry): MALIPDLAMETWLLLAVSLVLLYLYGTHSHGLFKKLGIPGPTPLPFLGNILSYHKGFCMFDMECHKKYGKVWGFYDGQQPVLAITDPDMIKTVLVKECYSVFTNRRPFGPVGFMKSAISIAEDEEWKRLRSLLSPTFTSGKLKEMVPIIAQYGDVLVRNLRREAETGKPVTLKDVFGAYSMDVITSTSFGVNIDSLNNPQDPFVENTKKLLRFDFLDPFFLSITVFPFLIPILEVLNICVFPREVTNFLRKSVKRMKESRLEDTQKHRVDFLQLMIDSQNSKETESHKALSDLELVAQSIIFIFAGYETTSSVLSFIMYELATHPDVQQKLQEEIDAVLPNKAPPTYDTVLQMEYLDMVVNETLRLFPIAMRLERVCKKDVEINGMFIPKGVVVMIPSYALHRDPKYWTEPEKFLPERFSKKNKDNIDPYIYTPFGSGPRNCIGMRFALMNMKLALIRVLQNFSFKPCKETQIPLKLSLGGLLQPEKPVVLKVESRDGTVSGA

Row | SMILES | IC50 (SRPK1) | IC50 (CYP1A2) | IC50 (CYP2C9) | IC50 (CYP2C19) | pIC50 (CYP2D6) | IC50 (CYP3A4)
1 | O=C(Nc1cc(Cl)ccc1N1CCCC(O)CC1)c1ccc(C2CCOCC2)o1 (racemic) [Example 48, N-(5-chloro-2-(4-hydroxyazepan-1-yl)phenyl)-5-(tetrahydro-2H-pyran-4-yl)furan-2-carboxamide] | 15 nM | 16800 nM | 10300 nM | 6000 nM | 4.80 | 21100 nM
2 | O=C(Nc1cc(C2CC2)ccc1N1CCCC(O)CC1)c1ccc(C2CCOCC2)o1 (racemic) [Example 49, N-(5-cyclopropyl-2-(4-hydroxyazepan-1-yl)phenyl)-5-(tetrahydro-2H-pyran-4-yl)furan-2-carboxamide] | 5.2 nM | 7340 nM | 7250 nM | 6730 nM | 4.67 | 17200 nM
3 | CC1(O)CCN(c2ccc(C(F)(F)F)cc2NC(=O)c2ccc(C3CCOCC3)o2)C1 (racemic) [Example 54, N-(2-(3-hydroxy-3-methylpyrrolidin-1-yl)-5-(trifluoromethyl)-phenyl)-5-(tetrahydro-2H-pyran-4-yl)furan-2-carboxamide] | 35 nM | > 30000 nM | 6350 nM | 6140 nM | 5.15 | 20900 nM
4 | CC1(O)CCN(c2ccc(C(F)(F)F)cc2NC(=O)c2ccc(-c3ccncc3)o2)C1 (racemic) [Example 55, N-(2-(3-hydroxy-3-methylpyrrolidin-1-yl)-5-(trifluoromethyl)-phenyl)-5-(pyridin-4-yl)furan-2-carboxamide] | 26 nM | 13000 nM | > 30000 nM | 22900 nM | < 4.52 | > 30000 nM
5 | O=C(Nc1cc(C(F)(F)F)ccc1N1CCC(O)C1)c1ccc(-c2ccncc2)o1 (racemic) [Example 56, N-(2-(3-hydroxypyrrolidin-1-yl)-5-(trifluoromethyl)-phenyl)-5-(pyridin-4-yl)furan-2-carboxamide] | 101 nM | 960 nM | 140 nM | 130 nM | 7.40 | 2420 nM
6 | O=C(Nc1cc(C(F)(F)F)ccc1N1CCC(O)C1)c1ccc(C2CCOCC2)o1 (racemic) [Example 57, N-(2-(3-hydroxypyrrolidin-1-yl)-5-(trifluoromethyl)-phenyl)-5-(tetrahydro-2H-pyran-4-yl)furan-2-carboxamide] | 75 nM | 9160 nM | 5550 nM | 14500 nM | 4.94 | > 30000 nM
7 | Cc1ccc(N2CCC(C)(O)C2)c(NC(=O)c2ccc(C3CCOCC3)o2)c1 (racemic) [Example 58, N-(2-(3-hydroxy-3-methylpyrrolidin-1-yl)-5-methylphenyl)-5-(tetrahydro-2H-pyran-4-yl)-furan-2-carboxamide] | 204 nM | > 30000 nM | > 30000 nM | > 30000 nM | < 4.52 | 23200 nM
8 | CC1(O)CCN(c2ccc(C3CC3)cc2NC(=O)c2ccc(C3CCOCC3)o2)C1 (racemic) [Example 59, N-(5-cyclopropyl-2-(3-hydroxy-3-methyl-pyrrolidin-1-yl)phenyl)-5-(tetrahydro-2H-pyran-4-yl)furan-2-carboxamide] | 54 nM | 10500 nM | 15000 nM | 10500 nM | 4.62 | > 30000 nM
9 | CC1(O)CCN(c2ccc(Cl)cc2NC(=O)c2ccc(C3CCOCC3)o2)C1 (racemic) [Example 60, N-(5-chloro-2-(3-hydroxy-3-methylpyrrolidin-1-yl)phenyl)-5-(tetrahydro-2H-pyran-4-yl)furan-2-carboxamide] | 71 nM | > 30000 nM | > 30000 nM | 22600 nM | < 4.52 | > 30000 nM
10 | CC1(O)CCN(c2ccc(C(F)(F)F)cc2NC(=O)c2ccccn2)CC1 [Example 1, N-(2-(4-hydroxy-4-methylpiperidin-1-yl)-5-(trifluoromethyl)phenyl)picolinamide] | 9 nM | 15300 nM | 17800 nM | 16000 nM | < 4.52 | 20900 nM
11 | CC1(O)CCN(c2ccc(Cl)cc2NC(=O)c2ccccn2)CC1 [Example 2, N-(5-chloro-2-(4-hydroxy-4-methylpiperidin-1-yl)-phenyl)picolinamide] | 25 nM | 5890 nM | 13500 nM | 18200 nM | < 4.52 | 10000 nM
12 | CC1(O)CCN(c2ccc(C3CC3)cc2NC(=O)c2ccccn2)CC1 [Example 3, N-(5-cyclopropyl-2-(4-hydroxy-4-methylpiperidin-1-yl)phenyl)-picolinamide] | 19 nM | 14400 nM | 12000 nM | 7160 nM | < 4.52 | 17100 nM
13 | CC1(O)CCN(c2ccc(C(F)(F)F)cc2NC(=O)c2ccc(-c3ccncc3)o2)CC1 [Example 4, N-(2-(4-hydroxy-4-methylpiperidin-1-yl)-5-(trifluoromethyl)phenyl)-5-(pyridin-4-yl)furan-2-carboxamide] | 5 nM | 23200 nM | 2480 nM | 2480 nM | 5.46 | 4900 nM
14 | CC1(O)CCN(c2ccc(Cl)cc2NC(=O)c2ccc(-c3ccncc3)o2)CC1 [Example 5, N-(5-chloro-2-(4-hydroxy-4-methylpiperidin-1-yl)phenyl)-5-(pyridin-4-yl)furan-2-carboxamide] | 0.5 nM | 8130 nM | 660 nM | 2180 nM | 5.29 | 670 nM
15 | CC1(O)CCN(c2ccc(C3CC3)cc2NC(=O)c2ccc(-c3ccncc3)o2)CC1 [Example 6, N-(5-cyclopropyl-2-(4-hydroxy-4-methylpiperidin-1-yl)phenyl)-5-(pyridin-4-yl)furan-2-carboxamide] | 1.7 nM | 11700 nM | 790 nM | 1010 nM | 5.32 | 1050 nM
16 | CC1(O)CCN(c2ccc(C(F)F)cc2NC(=O)c2ccc(-c3ccncc3)o2)CC1 [Example 7, N-(5-(difluoromethyl)-2-(4-hydroxy-4-methyl-piperidin-1-yl)phenyl)-5-(pyridin-4-yl)furan-2-carboxamide] | 1.7 nM | 4000 nM | 600 nM | 1400 nM | 5.64 | 1200 nM
17 | Cc1ccc(N2CCC(C)(O)CC2)c(NC(=O)c2ccc(-c3ccncc3)o2)c1 [Example 8, N-(2-(4-hydroxy-4-methylpiperidin-1-yl)-5-methylphenyl)-5-(pyridin-4-yl)furan-2-carboxamide] | 14.4 nM | 11100 nM | 1100 nM | 2900 nM | 5.21 | 1700 nM
18 | COc1ccc(N2CCC(C)(O)CC2)c(NC(=O)c2ccc(-c3ccncc3)o2)c1 [Example 9, N-(2-(4-hydroxy-4-methylpiperidin-1-yl)-5-methoxyphenyl)-5-(pyridin-4-yl)furan-2-carboxamide] | 4.4 nM | 4990 nM | 350 nM | 890 nM | 5.29 | 360 nM
